The structures appear in SMILES notation.

T1 sequence (P20272 whole entry): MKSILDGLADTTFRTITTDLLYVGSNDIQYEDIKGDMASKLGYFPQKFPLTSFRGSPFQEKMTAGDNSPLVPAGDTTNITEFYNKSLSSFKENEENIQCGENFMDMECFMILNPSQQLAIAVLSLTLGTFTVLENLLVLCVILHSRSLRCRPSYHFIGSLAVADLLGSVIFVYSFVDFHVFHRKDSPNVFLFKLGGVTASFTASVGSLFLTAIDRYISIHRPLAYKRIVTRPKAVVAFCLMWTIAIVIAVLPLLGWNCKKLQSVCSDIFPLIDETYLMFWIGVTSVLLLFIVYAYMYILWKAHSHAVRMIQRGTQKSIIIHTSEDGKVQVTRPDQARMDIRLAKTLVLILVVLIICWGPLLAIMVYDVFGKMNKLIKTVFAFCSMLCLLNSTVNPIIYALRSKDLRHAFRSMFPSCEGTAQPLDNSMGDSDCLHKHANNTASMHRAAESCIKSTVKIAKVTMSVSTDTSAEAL

One assay concerns the target T1, CB1 receptor (Rattus norvegicus, UniProt P20272).
T1 construct: Whole rat brains or dissected regions from live CD rats; tissue Charles River or Pel-Freez Biologicals; host or cells: whole rat brain (CD rats), P2 membrane
Put plainly: Radioligand displacement in whole rat brain (CB1) membrane preparations. The assay is classed as binding. The settings on record: Ki, displacement of 3H-CP55940, whole rat brain; 3H-CP55940; Table 4, parallel synthesis analogs, n = 1, concentration assumes 100% yield. The source says: CB1 receptor affinity in rat brain.
Methods—membrane preparation from brain. The methods for tissue preparation are essentially those described by Devane et al. (1988) as modified by Compton et al. (1993) and later by Thomas et al. (1998). Whole rat brains or dissected regions from live CD rats from Charles River or Pel-Freez Biologicals (Rogers, Ark.), or human brain sections obtained from the National Disease Research Institute, were allowed to thaw to room temperature on ice. Both whole brain and dissected brain regions were used because different brain regions may express different cannabinoid receptor subtypes (Skaper et al., 1996; Thomas et al., 1998). The tissue was homogenized with a Kontes Potter-Elvehjem glass-Teflon grinding system (Fisher Scientific, Springfield, N.J.) in buffer 1 (320 mM sucrose, 2 mM EDTA, 5 mM MgCl2. The homogenate was centrifuged at 1600 g for 10 min. The supernatant was saved and combined with the two subsequent supernatants obtained from washing and 1600 g centrifugation of the P1 pellet. The combined supernatant fractions were then centrifuged at 39,000 g for 15 min. The P2 pellet was resuspended in 50 mL of buffer 2 (50 mM Tris.HCl, 2 mM EDTA, 5 mM MgCl2, pH 7.0), incubated at 37° C. for 10 min, then centrifuged at 23,000 g for 10 min. The P2 membrane was resuspended in 50 mL of buffer 2, incubated at 30° C. for 40 min, then centrifuged at 11,000 g for 15 min. The final wash-treated P2 pellet was resuspended in assay buffer 3 (50 mM Tris.HCl, 1 mM EDTA, 3 MM MgCl2, pH 7.4). Protein concentrations were determined by the method of Bradford (1976) using Coomassie brilliant blue dye (Bio-Rad, Richmond, Calif.) and BSA standards (bovine serum albumin, fatty acid free, Sigma Chemical Co., St. Louis, Mo.) prepared in assay buffer 3. The membrane preparation was divided into aliquots and stored at −80° C. For use in the binding assay, an aliquot of frozen membranes was thawed on ice and diluted to a concentration of ca. 0.2 mg/mL in assay buffer.
Methods—binding assay in brain membrane preparation. The methods for ligand binding are essentially those described by Devane et al. (1988) with the exception that we used a filtration assay. […] All cannabinoid analogs were prepared by suspension in buffer A from a 1-5 mg/mL ethanolic stock. Following incubation at 30° C. for 1 h, binding was terminated by vacuum filtration through pretreated filters in a 96-well sampling manifold (Millipore, Bedford, Mass.). Reaction vessels were washed at least 3 times with 1 mL of ice cold buffer B (50 mM Tris.HCl, 1 mg/mL BSA). The filter plates were air-dried and sealed on the bottom. Liquid scintillant was added to the wells and the top sealed. After incubating the plates in cocktail for at least 2 h, the radioactivity present was determined by liquid scintillation spectrometry. Assays were done in duplicate, and results represent the combined data of three to six independent experiments. All assays were performed in polypropylene test tubes. The GF/C glassfiber filter plates (Packard, Meriden, Conn.) were pretreated in buffer B for at least 1 h.
(§1) Data analysis. Saturation and displacement data were analyzed by unweighted nonlinear regression of receptor binding data. For displacement studies, curve-fitting and IC50 calculation were done with GraphPad Prism (GraphPad Software, Inc., San Diego, Calif.), which fits the data to one and two-site models and compares the two fits statistically. A similar approach was used for the analysis of isotherm data for calculation of Kd's. A two-site fit was accepted only if it was statistically significant (p<0.05) and the following results were not observed:
(§2) IC50 values were then converted to Ki values by reported methods (Cheng and Prusoff, 1973). The statistical evaluation of curve-fitting data allowed for a non-arbitrary conclusion based on the displacement data.
In general, Ki refers to the equilibrium dissociation constant of an inhibitor or competing ligand from its target. In turn, `Cc1c(C(=O)N2CCC(O)(c3ccccc3)CC2)nn(-c2ccc(Cl)cc2Cl)c1-c1ccc(Cl)cc1` [AM-28] yielded a Ki of 0.113 µM.
On the same count and under the same terms, under `COCC(C)NC(=O)c1nn(-c2ccc(Cl)cc2Cl)c(-c2ccc(Cl)cc2)c1C` (stereo not drawn) [AM-17] stands 0.0644 µM; under `CCCCCCCCCCCNC(=O)c1nn(-c2ccc(Cl)cc2Cl)c(-c2ccc(Cl)cc2)c1C` [BT-7], 0.168 µM.

The same assay, now with this note: Ki, displacement of 3H-SR141716A, whole rat brain; 3H-SR141716A; Table 4, parallel synthesis analogs, n = 1, concentration assumes 100% yield.
The compound `Cc1c(C(=O)N2CCC(O)(c3ccccc3)CC2)nn(-c2ccc(Cl)cc2Cl)c1-c1ccc(Cl)cc1` [AM-28] gave a Ki of 0.0412 µM.
As for `COCC(C)NC(=O)c1nn(-c2ccc(Cl)cc2Cl)c(-c2ccc(Cl)cc2)c1C` (stereo not drawn) [AM-17], the affinity, expressed as Ki, was 0.0228 µM.
The same measure, in the same setting: as for `CCCCCCCCCCCNC(=O)c1nn(-c2ccc(Cl)cc2Cl)c(-c2ccc(Cl)cc2)c1C` [BT-7], the figure is 0.0255 µM.

Staying with this assay, now noted: Ki, displacement of 3H-WIN55212-2, whole rat brain; 3H-WIN55212-2; Table 4, parallel synthesis analogs, n = 1, concentration assumes 100% yield.
With `Cc1c(C(=O)N2CCC(O)(c3ccccc3)CC2)nn(-c2ccc(Cl)cc2Cl)c1-c1ccc(Cl)cc1` [AM-28], the inhibition constant Ki turned out to be 0.0695 µM.
Still for that read-out and setting: as for `COCC(C)NC(=O)c1nn(-c2ccc(Cl)cc2Cl)c(-c2ccc(Cl)cc2)c1C` (stereo not drawn) [AM-17], the figure is 0.0226 µM.
With `CCCCCCCCCCCNC(=O)c1nn(-c2ccc(Cl)cc2Cl)c(-c2ccc(Cl)cc2)c1C` [BT-7], the affinity, expressed as Ki, was 0.278 µM.

Still in this assay, the particulars now being: whole rat brain; 3H-CP55940; Table 4, parallel synthesis analogs, n = 1.
Consider `Cc1c(C(=O)N2CCC(O)(c3ccccc3)CC2)nn(-c2ccc(Cl)cc2Cl)c1-c1ccc(Cl)cc1` [AM-28], for which the “Max. Disp. %, 3H-CP55940” value amounted to 97.2%.
Still for that read-out and setting: as for `COCC(C)NC(=O)c1nn(-c2ccc(Cl)cc2Cl)c(-c2ccc(Cl)cc2)c1C` (stereo not drawn) [AM-17], the figure is 96.2%; as for `CCCCCCCCCCCNC(=O)c1nn(-c2ccc(Cl)cc2Cl)c(-c2ccc(Cl)cc2)c1C` [BT-7], 86.4%.

Still in this assay, the particulars now being: whole rat brain; 3H-SR141716A; Table 4, parallel synthesis analogs, n = 1.
On to `Cc1c(C(=O)N2CCC(O)(c3ccccc3)CC2)nn(-c2ccc(Cl)cc2Cl)c1-c1ccc(Cl)cc1` [AM-28], for which the “Max. Disp. %, 3H-SR141716A” value came out at 97.2%.
Turning to `COCC(C)NC(=O)c1nn(-c2ccc(Cl)cc2Cl)c(-c2ccc(Cl)cc2)c1C` (stereo not drawn) [AM-17], the “Max. Disp. %, 3H-SR141716A” value came to 94.1%.
With `CCCCCCCCCCCNC(=O)c1nn(-c2ccc(Cl)cc2Cl)c(-c2ccc(Cl)cc2)c1C` [BT-7], the “Max. Disp. %, 3H-SR141716A” value turned out to be 83.8%.

The same assay, now with this note: whole rat brain; 3H-WIN55212-2; Table 4, parallel synthesis analogs, n = 1.
Turning to `Cc1c(C(=O)N2CCC(O)(c3ccccc3)CC2)nn(-c2ccc(Cl)cc2Cl)c1-c1ccc(Cl)cc1` [AM-28], the “Max. Disp. %, 3H-WIN55212-2” value is 94.4%.
Same read-out and setting: as for `COCC(C)NC(=O)c1nn(-c2ccc(Cl)cc2Cl)c(-c2ccc(Cl)cc2)c1C` (stereo not drawn) [AM-17], the figure is 84.8%; as for `CCCCCCCCCCCNC(=O)c1nn(-c2ccc(Cl)cc2Cl)c(-c2ccc(Cl)cc2)c1C` [BT-7], 90.3%.

A further assay deals with T2, human CB1 receptor (Homo sapiens, UniProt P21554).
T2 construct: expressed in transfected cells; host or cells: HEK-293
T2 sequence (P21554 whole entry): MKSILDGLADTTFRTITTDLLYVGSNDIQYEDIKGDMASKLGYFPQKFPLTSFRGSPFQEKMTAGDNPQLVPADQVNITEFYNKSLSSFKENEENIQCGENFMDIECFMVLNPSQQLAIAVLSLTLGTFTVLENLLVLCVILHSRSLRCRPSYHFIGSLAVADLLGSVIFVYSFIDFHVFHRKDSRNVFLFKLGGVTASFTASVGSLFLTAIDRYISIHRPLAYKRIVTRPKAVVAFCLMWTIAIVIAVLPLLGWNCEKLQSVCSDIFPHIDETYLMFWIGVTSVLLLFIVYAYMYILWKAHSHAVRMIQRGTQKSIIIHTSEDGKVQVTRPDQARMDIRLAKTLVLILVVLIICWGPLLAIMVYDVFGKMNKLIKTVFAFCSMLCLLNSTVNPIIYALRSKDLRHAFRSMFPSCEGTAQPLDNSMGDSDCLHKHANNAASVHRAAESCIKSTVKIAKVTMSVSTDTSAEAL
Description: Radioligand displacement in human CB1 receptor-transfected cells (HEK-293). Format: binding. The settings on record: Ki, displacement of 3H-CP55940, human CB1 transfected cells; 3H-CP55940; Table 5, parallel synthesis analogs, concentration assumes 100% yield. How it is done:
Human CB1 receptor affinity. The alkyl amide analogs of the present invention were examined using transfected cell lines expressing the human CB1 receptor (Table 3).
Methods—binding assay in transfected cell lines. The methods used for performing binding assays in transfected cells expressing human CB1 or CB2 receptors are those used above. The CB1 receptor involved a HEK-293 expression system whereas the CB2 receptor was expressed in CHO-K1 cells. […] The incubations and separations were then performed as described above for rat brain membrane preparations.
as §1, §2
For the compound `Cc1c(C(=O)N2CCC(O)(c3ccccc3)CC2)nn(-c2ccc(Cl)cc2Cl)c1-c1ccc(Cl)cc1` [AM-28], the Ki worked out at 0.0521 µM.
The same measure, in the same setting: under `COCC(C)NC(=O)c1nn(-c2ccc(Cl)cc2Cl)c(-c2ccc(Cl)cc2)c1C` (stereo not drawn) [AM-17] stands 0.0398 µM; under `CCCCCCCCCCCNC(=O)c1nn(-c2ccc(Cl)cc2Cl)c(-c2ccc(Cl)cc2)c1C` [BT-7], 0.0456 µM.

The assay is the same for the next values; noted with them: Ki, displacement of 3H-SR141716A, human CB1 transfected cells; 3H-SR141716A; Table 5, parallel synthesis analogs, concentration assumes 100% yield.
On to `Cc1c(C(=O)N2CCC(O)(c3ccccc3)CC2)nn(-c2ccc(Cl)cc2Cl)c1-c1ccc(Cl)cc1` [AM-28], for which the Ki is 0.0282 µM.
As for `COCC(C)NC(=O)c1nn(-c2ccc(Cl)cc2Cl)c(-c2ccc(Cl)cc2)c1C` (stereo not drawn) [AM-17], the affinity corresponds to a Ki of 0.0176 µM.
As for `CCCCCCCCCCCNC(=O)c1nn(-c2ccc(Cl)cc2Cl)c(-c2ccc(Cl)cc2)c1C` [BT-7], the affinity corresponds to a Ki of 0.0052 µM.

The assay is the same for the next values; noted with them: Ki, displacement of 3H-WIN55212-2, human CB1 transfected cells; 3H-WIN55212-2; Table 5, parallel synthesis analogs, concentration assumes 100% yield.
On to `Cc1c(C(=O)N2CCC(O)(c3ccccc3)CC2)nn(-c2ccc(Cl)cc2Cl)c1-c1ccc(Cl)cc1` [AM-28], for which the affinity corresponds to a Ki of 0.0569 µM.
Regarding `COCC(C)NC(=O)c1nn(-c2ccc(Cl)cc2Cl)c(-c2ccc(Cl)cc2)c1C` (stereo not drawn) [AM-17], the Ki worked out at 0.0309 µM.
On the same count and under the same terms, as for `CCCCCCCCCCCNC(=O)c1nn(-c2ccc(Cl)cc2Cl)c(-c2ccc(Cl)cc2)c1C` [BT-7], the figure is 0.0117 µM.

The assay is the same for the next values; noted with them: human CB1 transfected cells; 3H-CP55940; Table 5, parallel synthesis analogs.
Turning to `Cc1c(C(=O)N2CCC(O)(c3ccccc3)CC2)nn(-c2ccc(Cl)cc2Cl)c1-c1ccc(Cl)cc1` [AM-28], the “Max. Disp. %, 3H-CP55940” value is recorded as 79.6%.
On the same count and under the same terms, as for `COCC(C)NC(=O)c1nn(-c2ccc(Cl)cc2Cl)c(-c2ccc(Cl)cc2)c1C` (stereo not drawn) [AM-17], the figure is 86.3%.
On the same count and under the same terms, under `CCCCCCCCCCCNC(=O)c1nn(-c2ccc(Cl)cc2Cl)c(-c2ccc(Cl)cc2)c1C` [BT-7] stands 82.4%.

Still in this assay, the particulars now being: human CB1 transfected cells; 3H-SR141716A; Table 5, parallel synthesis analogs.
On to `Cc1c(C(=O)N2CCC(O)(c3ccccc3)CC2)nn(-c2ccc(Cl)cc2Cl)c1-c1ccc(Cl)cc1` [AM-28], for which the “Max. Disp. %, 3H-SR141716A” value is 99.2%.
Same read-out and setting: under `COCC(C)NC(=O)c1nn(-c2ccc(Cl)cc2Cl)c(-c2ccc(Cl)cc2)c1C` (stereo not drawn) [AM-17] stands 98.7%.
On the same count and under the same terms, as for `CCCCCCCCCCCNC(=O)c1nn(-c2ccc(Cl)cc2Cl)c(-c2ccc(Cl)cc2)c1C` [BT-7], the figure is 96.9%.

Still in this assay, the particulars now being: human CB1 transfected cells; 3H-WIN55212-2; Table 5, parallel synthesis analogs.
With `Cc1c(C(=O)N2CCC(O)(c3ccccc3)CC2)nn(-c2ccc(Cl)cc2Cl)c1-c1ccc(Cl)cc1` [AM-28], the “Max. Disp. %, 3H-WIN55212-2” value is reported as 100%.
On the same count and under the same terms, under `COCC(C)NC(=O)c1nn(-c2ccc(Cl)cc2Cl)c(-c2ccc(Cl)cc2)c1C` (stereo not drawn) [AM-17] stands 96.8%; under `CCCCCCCCCCCNC(=O)c1nn(-c2ccc(Cl)cc2Cl)c(-c2ccc(Cl)cc2)c1C` [BT-7], 54.9%.

(Values after patent US6825209B2, “Compounds having unique CB1 receptor binding selectivity and methods for their production and use” (Research Triangle Institute, priority 2002, dated 2004).)
